# Structures can show the parent of a compound that is named as a salt.
# Legend:
# [1] = molecular target: T1, β-kinase domain of the human insulin receptor (CKD) (Homo sapiens, UniProt P06213); test: 32P-cytoplasmic kinase domain (CKD) autophosphorylation assay; type: biochemical; conditions: phosphorylation of CKD expressed as % of the vehicle level; 10 minutes at room temperature; compound concentration not given
# T1 construct: The complete β-kinase domain of the human insulin receptor (CKD) was expressed in, and purified from, baculovirus; made in house
# T1 sequence (P06213 980-1382 limits assumed): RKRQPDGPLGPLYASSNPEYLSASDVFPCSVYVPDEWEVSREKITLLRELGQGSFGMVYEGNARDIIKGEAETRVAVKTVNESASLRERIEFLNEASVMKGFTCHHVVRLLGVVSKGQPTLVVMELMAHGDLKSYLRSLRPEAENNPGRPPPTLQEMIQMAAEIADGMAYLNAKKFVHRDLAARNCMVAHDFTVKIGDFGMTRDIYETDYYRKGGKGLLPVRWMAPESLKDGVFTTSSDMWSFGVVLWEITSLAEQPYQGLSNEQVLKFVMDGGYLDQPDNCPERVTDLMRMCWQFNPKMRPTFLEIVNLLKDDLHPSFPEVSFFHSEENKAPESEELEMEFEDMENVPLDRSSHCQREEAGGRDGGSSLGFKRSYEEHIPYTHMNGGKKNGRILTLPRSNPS
# Description: ^32P-cytoplasmic Kinase Domain (CKD) Autophosphorylation Assay The insulin signaling pathway is activated through stimulation of the insulin receptor. A major component of this activation is the phosphorylation of a specific portion of the receptor called the β-kinase domain. The complete β-kinase domain of the human insulin receptor (CKD) was expressed in, and purified from, baculovirus. CKD (4.0μg/ml), in a solution of 29 mM HEPES (pH 7.6), 0.05% Triton X-100, 10 mM MgCl2, 2 mM MnCl2 (50 μl final volume), was combined with 50 μM ATP, and 5 μCi ^32P-ATP (3000Ci/mmol.). A test compound, or the vehicle (dimethyl sulfoxide (DMSO)) was added to a final DMSO concentration of 1%. The mixture was incubated for 10 minutes at room temperature. The reaction was terminated by the addition of 10 μl 200 mM EDTA. A 30 μl volume was removed, mixed with 5 μl of 6× Laemmeli sodium dodecyl sulfate (SDS) treatment buffer, and heated to 94° C. for 5 minutes. A 20 μl aliquot was then run an SDS-PAGE gel. The radioactivity incorporated into the CKD band was quantified by phosphorimaging of the gel, or scintillation counting of the excised bands. The potency of a compound for increasing phosphorylation was expressed as % of the vehicle level.
# [2] = system: Escherichia coli strain WP2uvrA; test: Ames test, Escherichia coli strain; conditions: 50 to 5000 μg/plate, without and with induced rat liver S-9 plus cofactors
# [3] = system: Salmonella typhimurium strains, TA100, TA1535, and TA1537; test: Ames test, Salmonella typhimurium strains; conditions: 50 to 5000 μg/plate, without and with induced rat liver S-9 plus cofactors
# [4] = system: 3T3 L1 fibroblasts; test: Glucose transport activity assay (14C-2-deoxy-D-glucose uptake); type: cell-based; conditions: Mus musculus, 3T3-L1, read-out: Concentration (μM) to reach >150% activity of vehicle control
# Procedure, shortened: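 Differentiated 3T3 L1 adipocytes (IBMX/dexamethasone/insulin induction), serum-starved overnight, preincubated 30 min at 37 °C with compound ± insulin in pH 7.4 salt buffer, then 30 min with 5 μCi/ml 14C-2-deoxy-D-glucose. Lysate radioactivity counted; EC = concentration raising uptake above 150% of vehicle control.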
compound,measurement,setting,value
"O=C(Nc1ccc2c(O)cc(S(=O)(=O)O)cc2c1)Nc1ccc2c(O)cc(S(=O)(=O)O)cc2c1 [Compound 4, 4-hydroxy-7-{[(5-hydroxy-7-sulfo(2-naphthyl))amino]carbonylamino}naphthalene-2-sulfonic acid disodium salt]",% Activity vs. Control,[1],152%
same,"mutagenicity (revertant colonies), tryptophan operon",[2],negative
same,"mutagenicity (revertant colonies), histidine operon",[3],negative
same,EC (150% of vehicle control),[4],32 µM

# From US7071231B2, “Naphthalene ureas as glucose uptake enhancers” (Telik, Inc., priority 1999, dated 2006)
